Literature values as cited in patent publication US20240041893A1, “An Extended-Release Pharmaceutical Formulation of Viloxazine And Process For Preparation Thereof” (Innovate Therapeutics LLC, priority 2023, published 2024).

System: norepinephrine reuptake

For `CCOc1ccccc1OC[C@@H]1CNCCO1` [(S)-(−)-isomer], which “pharmacological activity relative to the (R)-(+)-isomer” value is on record?
Its value is “five times”.
